We go through 1 substance from patent US10639319B2, “Human milk oligosaccharides for preventing injury and/or promoting healing of the gastrointestinal tract” (ABBOTT LABORATORIES, priority 2011, dated 2020).

The test deals with infant fecal bacteria. The test can be described thus: In vitro substrate fermentation model with infant fecal inocula, isobutyrate (BCFA) analysis (Example 78). It counts as cell-based. The note with it: for greater concentration of isobutyrate than any of the other substrates: infant fecal inoculum cultures, P<0.05.

In the case of 2′-α-L-Fucopyranosyl-D-Lactose [2′-FL], for the setting “in vitro fermentation model”, the “fermentation by infant fecal bacteria” value was “readily fermented” and the “production of isobutyrate as compared to other substrates” value was “enhances”. In addition, the “greater concentration of isobutyrate than any of the other substrates” value (6 hours) is “approximately 5 fold”. Besides, for the setting “12 hours”, the “greater concentration of isobutyrate than any of the other substrates” value is on record as about 10 fold.
